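Tested at 5 concentrations; 48 h exposure; 96-well plates; endpoints linearly interpolated, else capped at highest concentration. GI50 marks 50% less growth. TGI is the concentration that stops growth completely.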
Key:
Test in all cases: DTP human tumour cell line panel, 48 h
EKVX NSCLC = tested on: EKVX NSCLC
HL-60(TB) leukemia = tested on: HL-60(TB) leukemia
T-47D breast = tested on: T-47D breast
SK-MEL-2 melanoma = tested on: SK-MEL-2 melanoma
UACC-62 melanoma = tested on: UACC-62 melanoma
SF-295 CNS = tested on: SF-295 CNS
HOP-62 NSCLC = tested on: HOP-62 NSCLC
SR leukemia = tested on: SR leukemia
SN12C renal = tested on: SN12C renal
SNB-19 CNS = tested on: SNB-19 CNS
BT-549 breast = tested on: BT-549 breast
RXF 393 renal = tested on: RXF 393 renal
RPMI-8226 leukemia = tested on: RPMI-8226 leukemia
OVCAR-5 ovarian = tested on: OVCAR-5 ovarian
NCI/ADR-RES ovarian = tested on: NCI/ADR-RES ovarian
DU-145 prostate = tested on: DU-145 prostate
HS 578T breast = tested on: HS 578T breast
HT29 colon = tested on: HT29 colon
MDA-MB-468 breast = tested on: MDA-MB-468 breast
MALME-3M melanoma = tested on: MALME-3M melanoma
KM12 colon = tested on: KM12 colon
SK-MEL-28 melanoma = tested on: SK-MEL-28 melanoma
MDA-MB-435 = tested on: MDA-MB-435
HOP-92 NSCLC = tested on: HOP-92 NSCLC
SF-539 CNS = tested on: SF-539 CNS
PC-3 prostate = tested on: PC-3 prostate
SW-620 colon = tested on: SW-620 colon
A549 NSCLC = tested on: A549 NSCLC
SNB-75 CNS = tested on: SNB-75 CNS
TK-10 renal = tested on: TK-10 renal
UACC-257 melanoma = tested on: UACC-257 melanoma
K-562 leukemia = tested on: K-562 leukemia
LOX IMVI melanoma = tested on: LOX IMVI melanoma
NCI-H23 lung = tested on: NCI-H23 lung
OVCAR-4 ovarian = tested on: OVCAR-4 ovarian
CCRF-CEM leukemia = tested on: CCRF-CEM leukemia
ACHN renal = tested on: ACHN renal
CAKI-1 renal = tested on: CAKI-1 renal
OVCAR-3 ovarian = tested on: OVCAR-3 ovarian
SK-OV-3 ovarian = tested on: SK-OV-3 ovarian
MDA-MB-231 breast = tested on: MDA-MB-231 breast
M14 melanoma = tested on: M14 melanoma
NCI-H460 lung = tested on: NCI-H460 lung
NCI-H226 lung = tested on: NCI-H226 lung
NCI-H522 lung = tested on: NCI-H522 lung
MCF7 breast = tested on: MCF7 breast
HCT-15 colon = tested on: HCT-15 colon
IGROV1 ovarian = tested on: IGROV1 ovarian
COLO 205 colon = tested on: COLO 205 colon
SK-MEL-5 melanoma = tested on: SK-MEL-5 melanoma
MOLT-4 leukemia = tested on: MOLT-4 leukemia
OVCAR-8 ovarian = tested on: OVCAR-8 ovarian
A498 renal = tested on: A498 renal
HCC-2998 colon = tested on: HCC-2998 colon
U251 CNS = tested on: U251 CNS
HCT-116 colon = tested on: HCT-116 colon
786-0 renal = tested on: 786-0 renal
SF-268 CNS = tested on: SF-268 CNS
UO-31 renal = tested on: UO-31 renal

In the case of `CCOC(=O)c1sc(N/N=C(\C)c2ccc3c(c2)Nc2ccccc2S3)nc1C`, the GI50 (EKVX NSCLC) is reported as 5.82 µM, the TGI (EKVX NSCLC) is reported as 22.8 µM and the GI50 (HL-60(TB) leukemia) is reported as 4.89 µM. The TGI (HL-60(TB) leukemia) was over 100 µM, the GI50 (T-47D breast) was 3.94 µM and the TGI (T-47D breast) was 49.2 µM. It also gave a GI50 (SK-MEL-2 melanoma) of 15.4 µM, a TGI (SK-MEL-2 melanoma) of 44.8 µM and a GI50 (UACC-62 melanoma) of 6.06 µM. It also gave a TGI (UACC-62 melanoma) of 20.6 µM, a GI50 (SF-295 CNS) of 3.38 µM and a TGI (SF-295 CNS) of 14.1 µM. The GI50 (HOP-62 NSCLC) was 13.3 µM, the TGI (HOP-62 NSCLC) was 29.6 µM and the GI50 (SR leukemia) was over 100 µM. The TGI (SR leukemia) was over 100 µM, the GI50 (SN12C renal) was 11.5 µM and the TGI (SN12C renal) was 28.3 µM. It also gave a GI50 (SNB-19 CNS) of 12.8 µM, a TGI (SNB-19 CNS) of 25.6 µM and a GI50 (BT-549 breast) of 18.4 µM. It also gave a TGI (BT-549 breast) of 49.3 µM, a GI50 (RXF 393 renal) of 3.2 µM and a TGI (RXF 393 renal) of 13.3 µM. For the same compound, the GI50 (RPMI-8226 leukemia) was 3.96 µM, the TGI (RPMI-8226 leukemia) was over 100 µM and the GI50 (OVCAR-5 ovarian) was 11.6 µM. The TGI (OVCAR-5 ovarian) was 67.6 µM, the GI50 (NCI/ADR-RES ovarian) was 8.87 µM and the TGI (NCI/ADR-RES ovarian) was 22.2 µM. The GI50 (DU-145 prostate) was 8.82 µM, the TGI (DU-145 prostate) was 29.1 µM and the GI50 (HS 578T breast) was 10.5 µM. It also gave a TGI (HS 578T breast) of 50.6 µM, a GI50 (HT29 colon) of 11.7 µM and a TGI (HT29 colon) of over 100 µM. It also gave a GI50 (MDA-MB-468 breast) of 3.45 µM, a TGI (MDA-MB-468 breast) of 15.1 µM and a GI50 (MALME-3M melanoma) of 13.7 µM. For the same compound, the TGI (MALME-3M melanoma) was 33.6 µM, the GI50 (KM12 colon) was 3.45 µM and the TGI (KM12 colon) was 19.4 µM. For the same compound, the GI50 (SK-MEL-28 melanoma) was 11.1 µM, the TGI (SK-MEL-28 melanoma) was 26.1 µM and the GI50 (MDA-MB-435) was 10.7 µM. It also gave a TGI (MDA-MB-435) of 33.6 µM, a GI50 (HOP-92 NSCLC) of 4.9 µM and a TGI (HOP-92 NSCLC) of 19.9 µM. For the same compound, the GI50 (SF-539 CNS) was 10.1 µM, the TGI (SF-539 CNS) was 21.7 µM and the GI50 (PC-3 prostate) was 6.04 µM. For the same compound, the TGI (PC-3 prostate) was 24 µM, the GI50 (SW-620 colon) was 11.9 µM and the TGI (SW-620 colon) was 45.2 µM. It also gave a GI50 (A549 NSCLC) of 6.4 µM, a TGI (A549 NSCLC) of 38.8 µM and a GI50 (SNB-75 CNS) of 8.97 µM. For the same compound, the TGI (SNB-75 CNS) was 31.2 µM, the GI50 (TK-10 renal) was 16.6 µM and the TGI (TK-10 renal) was 33.5 µM. The GI50 (UACC-257 melanoma) was 12.4 µM, the TGI (UACC-257 melanoma) was 40.4 µM and the GI50 (K-562 leukemia) was 4.03 µM. It also gave a TGI (K-562 leukemia) of over 100 µM, a GI50 (LOX IMVI melanoma) of 3.14 µM and a TGI (LOX IMVI melanoma) of 12.4 µM. The GI50 (NCI-H23 lung) was 8.65 µM, the TGI (NCI-H23 lung) was 21.3 µM and the GI50 (OVCAR-4 ovarian) was 10.7 µM. For the same compound, the TGI (OVCAR-4 ovarian) was 53.7 µM, the GI50 (CCRF-CEM leukemia) was 6.52 µM and the TGI (CCRF-CEM leukemia) was 94.4 µM. The GI50 (ACHN renal) was 6.1 µM, the TGI (ACHN renal) was 19.1 µM and the GI50 (CAKI-1 renal) was 9.09 µM. For the same compound, the TGI (CAKI-1 renal) was 22.8 µM, the GI50 (OVCAR-3 ovarian) was 12.8 µM and the TGI (OVCAR-3 ovarian) was 27.3 µM. It also gave a GI50 (SK-OV-3 ovarian) of 16.9 µM, a TGI (SK-OV-3 ovarian) of 39.7 µM and a GI50 (MDA-MB-231 breast) of 5.73 µM. The TGI (MDA-MB-231 breast) was 19.1 µM, the GI50 (M14 melanoma) was 8.42 µM and the TGI (M14 melanoma) was 61.8 µM. It also gave a GI50 (NCI-H460 lung) of 5 µM, a TGI (NCI-H460 lung) of 24.2 µM and a GI50 (NCI-H226 lung) of 10.9 µM. It also gave a TGI (NCI-H226 lung) of 29.3 µM, a GI50 (NCI-H522 lung) of 10.7 µM and a TGI (NCI-H522 lung) of 34.8 µM. For the same compound, the GI50 (MCF7 breast) was 3.36 µM, the TGI (MCF7 breast) was 17.5 µM and the GI50 (HCT-15 colon) was 3.4 µM. The TGI (HCT-15 colon) was 14.8 µM, the GI50 (IGROV1 ovarian) was 11.3 µM and the TGI (IGROV1 ovarian) was 26 µM. For the same compound, the GI50 (COLO 205 colon) was 9.42 µM, the TGI (COLO 205 colon) was 32.2 µM and the GI50 (SK-MEL-5 melanoma) was 7.62 µM. The TGI (SK-MEL-5 melanoma) was 27.2 µM, the GI50 (MOLT-4 leukemia) was 6.33 µM and the TGI (MOLT-4 leukemia) was over 100 µM. The GI50 (OVCAR-8 ovarian) was 12 µM, the TGI (OVCAR-8 ovarian) was 39.6 µM and the GI50 (A498 renal) was 16.1 µM. The TGI (A498 renal) was 45.5 µM, the GI50 (HCC-2998 colon) was 3.71 µM and the TGI (HCC-2998 colon) was 12.8 µM. For the same compound, the GI50 (U251 CNS) was 14.1 µM, the TGI (U251 CNS) was 54 µM and the GI50 (HCT-116 colon) was 6.64 µM. The TGI (HCT-116 colon) was over 100 µM, the GI50 (786-0 renal) was 7.21 µM and the TGI (786-0 renal) was 23.1 µM. The GI50 (SF-268 CNS) was 13.1 µM, the TGI (SF-268 CNS) was 40.4 µM and the GI50 (UO-31 renal) was 6.67 µM. The TGI (UO-31 renal) was 20.7 µM.

From PubChem BioAssay (NCI)
